Experimental data as given in PubChem BioAssay (NCI).
Values joined by “and” are separate entries in the source; they are usually repeats but may differ in a detail not shown here. Identical values can stand only once.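 Each compound was tested at five concentrations against cells in 96-well plates for 48 hours. At the GI50, growth is halved. TGI: total growth inhibition.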

Assays:
Experiment in all cases: DTP human tumour cell line panel, 48 h
TK-10 renal = test system: TK-10 renal
U251 CNS = test system: U251 CNS
OVCAR-3 ovarian = test system: OVCAR-3 ovarian
NCI-H226 lung = test system: NCI-H226 lung
UO-31 renal = test system: UO-31 renal
MCF7 breast = test system: MCF7 breast
SK-MEL-28 melanoma = test system: SK-MEL-28 melanoma
HT29 colon = test system: HT29 colon

SMILES	GI50 (TK-10 renal) [µM]	TGI (TK-10 renal)	GI50 (U251 CNS)	TGI (U251 CNS)	GI50 (OVCAR-3 ovarian)	TGI (OVCAR-3 ovarian)	GI50 (NCI-H226 lung) [µM]	TGI (NCI-H226 lung)	GI50 (UO-31 renal)	TGI (UO-31 renal)	GI50 (MCF7 breast) [µM]	TGI (MCF7 breast) [µM]	GI50 (SK-MEL-28 melanoma)	TGI (SK-MEL-28 melanoma)	GI50 (HT29 colon) [µM]	TGI (HT29 colon)
O=C1/C(=C/c2ccc(Cl)cc2Cl)N=C(c2ccccc2)N1Cc1ccco1	22.1	49.3 µM	20.5 µM	40.5 µM	22.6 µM	45.5 µM	23.9	67.6 µM	23.9 µM	> 100 µM	13.9	33.3	–	–	–	–
Cc1nn(CN2CCN(C)CC2)c(=S)n1/N=C/c1cccc2ccccc12	20.5	50.1 µM	–	–	18 µM	36 µM	17.1	34.9 µM	22 µM	54.4 µM	20.1	50.9	17 µM	34.3 µM	–	–
CC[CH2][Pb]([CH2]CC)([CH2]CC)[O]C(=O)C(F)(F)F	0.204	0.533 µM	0.156 µM	0.348 µM	0.0885 µM	0.239 µM	–	–	0.141 µM	0.409 µM	–	–	0.124 µM	0.452 µM	0.186	0.47 µM
COc1cc2c3c(n(C)c(=O)c2cc1OC)-c1cc2c(cc1/C3=C\CCCN1C(=O)c3ccccc3C1=O)OCO2	> 40	> 40 µM	12.8 µM	> 40 µM	> 40 µM	> 40 µM	–	–	–	–	6.94	> 40	> 40 µM	> 40 µM	> 40	> 40 µM
NCC(=O)NS(=O)(=O)OC[C@H]1O[C@@H](n2cnc3c(N)ncnc32)[C@H](O)[C@@H]1O	2.75	5.78 µM	0.555 µM	1.98 µM	2.01 µM	4.48 µM	2	3.77 µM	1.71 µM	3.25 µM	2.85	18.7	1.93 µM	4.14 µM	2.92	7.46 µM
C[C@]12CC[C@H](O)CC1=CC[C@@H]1[C@@H]2CC[C@]2(C)C(c3cccnc3)=CC[C@@H]12	> 100	> 100 µM	12.3 µM	> 100 µM	82.1 µM	> 100 µM	> 68	> 100 µM	> 100 µM	> 100 µM	> 100	> 100	61.3 µM	> 100 µM	56.2	> 100 µM
N#C/C(=C1C=C/C(=N/O)C(Br)=C/1)c1ccccc1	5.02	16.5 µM	2.44 µM	8.01 µM	3.48 µM	11.4 µM	3.59	11.6 µM	2.04 µM	15.4 µM	0.323	11.3	10.3 µM	31.1 µM	3.3	10.2 µM
Cn1c(N2NC(=O)C(N=Nc3ccc(S(N)(=O)=O)cc3)C2=O)nc(-c2ccco2)c(C#N)c1=O (stereo unspecified)	8.64	33.5 µM	42.3 µM	> 50 µM	13.4 µM	> 50 µM	> 50	> 50 µM	> 50 µM	> 50 µM	14.7	> 50	11.7 µM	45.5 µM	33.4	> 50 µM
Cc1ccc(-c2c3c([nH]c(=O)c2C#N)-c2cc(F)ccc2OC3)cc1	29.4	80.9 µM	46.2 µM	> 100 µM	25.4 µM	81.9 µM	–	–	41.3 µM	> 100 µM	52.7	> 100	> 100 µM	> 100 µM	> 100	> 100 µM
CCCCC/C(C=C(C#N)C#N)=C/c1ccccc1	6.54	42.9 µM	3.03 µM	14.1 µM	2.26 µM	11.2 µM	8.11	25.5 µM	7.08 µM	22.1 µM	3.46	17.4	2.86 µM	8.57 µM	3.61	12.3 µM
COc1ccc(C2=NN(C(=O)c3cc(OC)c(OC)c(OC)c3)C(c3ccc(C#N)cc3)C2)cc1OC (stereo unspecified)	3.65	> 45 µM	1.18 µM	> 34.6 µM	0.478 µM	2.35 µM	2.84	> 55.3 µM	0.439 µM	17.4 µM	0.512	> 88.9	1.3 µM	> 55 µM	2.42	> 32.1 µM
CC1=C(C(=O)Nc2ccc3[nH]ncc3c2)C(c2ccc3ccccc3c2)CC(=O)N1 (stereo unspecified)	8.73	> 25 µM	> 25 µM	> 25 µM	> 25 µM	> 25 µM	1.04	> 18.2 µM	2.4 µM	> 25 µM	24.4	> 25	> 22.2 µM	> 25 µM	20	> 25 µM
COc1ccc2c(c1)c(-c1nc(-c3cn(C)c4ncccc34)cs1)cn2CCCN1CCCCC1	1.64	3.1 µM	1.81 µM	3.23 µM	1.59 µM	3.02 µM	–	–	1.51 µM	2.87 µM	1.7	3.32	1.76 µM	3.29 µM	–	–
CN(C)CCNc1cc(-c2ccccc2)nc2ccccc12	6.94	38.8 µM	3.48 µM	11.2 µM	8.9 µM	33.1 µM	5.98	30.2 µM	4.01 µM	26.9 µM	3.68	19.7	13.4 µM	28.5 µM	4.01	16.7 µM
Cc1ccc2c(c1)C(=O)/C(=C/c1ncc([N+](=O)[O-])n1C)O2	3.19	11 µM	1.93 µM	5.32 µM	2.53 µM	6.55 µM	4.62	17.4 µM	1.17 µM	5.04 µM	0.534	9.88	2.34 µM	7.29 µM	0.491	3.36 µM
COc1cc(/C=C/c2cc(/C=C/c3ccc(O)c(OC)c3)n(-c3ccccc3)n2)ccc1O	0.563	1.99 µM	–	–	0.266 µM	0.938 µM	0.382	1.83 µM	0.287 µM	1.53 µM	0.265	1.7	0.386 µM	2.72 µM	0.724	4.1 µM
COc1cc(OC)cc(-c2ccc(-c3ccc(C(=N)N)o3)o2)c1	13.4	26.5 µM	2.45 µM	5.91 µM	3.26 µM	11.3 µM	22.6	44.6 µM	2.67 µM	9.16 µM	1.8	4.31	1.82 µM	3.67 µM	2.77	9.04 µM

SMILES	GI50 (TK-10 renal) [µM]	TGI (TK-10 renal)	GI50 (U251 CNS)	TGI (U251 CNS)	GI50 (OVCAR-3 ovarian)	TGI (OVCAR-3 ovarian)	GI50 (NCI-H226 lung) [µM]	TGI (NCI-H226 lung)	GI50 (UO-31 renal)	TGI (UO-31 renal)	GI50 (MCF7 breast) [µM]	TGI (MCF7 breast) [µM]	GI50 (SK-MEL-28 melanoma)	TGI (SK-MEL-28 melanoma)	GI50 (HT29 colon) [µM]	TGI (HT29 colon)
O=C(NCCOCCOCCNc1cccc2c1C(=O)N(C1CCCNC1=O)C2=O)c1cc2c(o1)C(=O)c1ccccc1C2=O (stereo unspecified)	3.39	7.14 µM	1.9 µM	3.9 µM	0.682 µM	2.69 µM	1.78	3.95 µM	2.03 µM	4.9 µM	1.25	3.21	2.31 µM	4.61 µM	2.93	8.05 µM
O=[N+]([O-])/C=C\c1ccc(Cl)c(Cl)c1	3.48	12 µM	0.916 µM	2.14 µM	1.96 µM	3.94 µM	12	27.9 µM	1.08 µM	2.33 µM	–	–	2.48 µM	6.54 µM	–	–
CSc1cc(N=Nc2nc3ccccc3s2)c2ccccc2c1O	12.6	28.7 µM	9.03 µM	19.4 µM	7.89 µM	19.3 µM	–	–	7.61 µM	15.9 µM	9.51	28.8	8.01 µM	18.6 µM	–	–
COc1cnc2cc(C(=O)O)c3c([N+](=O)[O-])cccc3c2c1	–	> 100 µM	–	> 100 µM	–	> 100 µM	–	> 100 µM	–	> 100 µM	–	> 100	–	> 100 µM	–	> 100 µM
O=C(CI)NC1Oc2ccccc2-c2oc(=O)c(-c3ccccc3)cc21 (stereo unspecified)	1.71	3.13 µM	1.73 µM	3.22 µM	1.3 µM	2.71 µM	3.32	29 µM	1.86 µM	3.28 µM	–	–	1.81 µM	3.31 µM	–	–
O=C1c2c(c3c4ccccc4n(CCCCCCBr)c3c3[nH]c4ccccc4c23)C(=O)N1O	3.13	11.7 µM	3.47 µM	13.3 µM	3.06 µM	13 µM	3.7	16.4 µM	2.11 µM	10.1 µM	–	–	2.95 µM	15.7 µM	1.73	3.25 µM
CC1OC(O[C@H]2C[C@@H](O)[C@]3(CO)[C@H]4[C@H](O)C[C@]5(C)[C@@H](C6=CC(=O)OC6)CC[C@]5(O)[C@@H]4CC[C@]3(O)C2)C(O)C(O)C1O (stereo partly specified)	16.2	30 µM	18.8 µM	33.7 µM	19.8 µM	40.7 µM	22.7	52 µM	24.7 µM	57.1 µM	22.9	42.7	21.7 µM	46.3 µM	19.5	36 µM
CCOC(=O)/C=C(/C(=O)OCC)n1cc(Cl)c(=O)n(CC(=O)OCC)c1=O	11.5	8.29 µM and 23.8 µM	21 µM	13.6 µM and 38.9 µM	10.5 µM	14.3 µM and 28.8 µM	–	> 25 µM and 32.5 µM	–	–	–	46.3	20.3 µM	10.5 µM and 42.2 µM	22.5	9.38 µM and 52 µM
CNC(=O)OCc1c(COC(=O)NC)c(-c2ccc(Cl)c(Cl)c2)n2c1SCC2	–	19.1 µM	–	22.2 µM	–	25.2 µM	–	2.67 µM	–	25.5 µM	–	27.2	–	37.3 µM	–	37.5 µM
CN1CCN(Cc2ccc(NC(=O)c3cncc(C#Cc4cnc(N)c5ccc(C#N)cc45)c3)cc2C(F)(F)F)CC1	0.21	1.47 µM	0.0235 µM	0.846 µM	0.331 µM	1.45 µM	0.0698	0.864 µM	0.0809 µM	0.565 µM	0.688	1.86	0.0273 µM	0.519 µM	0.0211	0.838 µM
CCc1c(Oc2ccc(C(C)=O)cc2)c2ccccc2[nH]c1=O	7.03	28.6 µM	19.2 µM	> 82 µM	26 µM	80.9 µM	2.8	43.9 µM	19.5 µM	> 100 µM	10.5	> 71.7	50.7 µM	> 100 µM	26.9	> 100 µM
O=C1/C(=C/c2ccc(Br)cc2)C=C(c2ccccc2)N1CCc1ccccc1	1.82	6.06 µM	0.761 µM	10.1 µM	1.78 µM	7.34 µM	1.11	4.57 µM	2.82 µM	19.8 µM	3.42	32.7	2.75 µM	17 µM	4.73	> 100 µM
Cn1cc(-c2cnc3ccc(NC(=O)Nc4ccc(F)c(Br)c4)cc3n2)cn1	2.09	5.5 µM	1.76 µM	3.88 µM	2 µM	5.77 µM	1.52	3.64 µM	1.42 µM	3.07 µM	–	–	1.9 µM	3.76 µM	–	–
COc1cccc(-c2cc(=O)c3cc(N(C)C)ccc3[nH]2)c1	–	65 µM and 34.2 µM	0.0182 µM and 0.00594 µM	–	0.0153 µM and 0.00266 µM	–	–	–	0.0642 µM and 0.0126 µM and 0.0132 µM	> 100 µM and 78.1 µM	–	–	0.0209 µM and 0.00582 µM	> 100 µM	–	–
Cc1c(C(=O)N/N=C/c2ccc(Cl)cc2)nnn1-c1ccnc2c(C(F)(F)F)cccc12	2.6	8.93 µM	–	–	12 µM	26.4 µM	2.77	8.32 µM	13 µM	27.8 µM	2.27	5.61	14.4 µM	38.5 µM	–	–
Cc1ccc(CS/C(=C\c2ccc([N+](=O)[O-])cc2)C(=O)c2ccc(F)cc2)cc1	15.1	32.2 µM	1.67 µM	3.1 µM	1.95 µM	4.02 µM	3.17	15 µM	2.72 µM	13.3 µM	–	–	5.46 µM	26.5 µM	1.78	4.26 µM
